Data as given in PubChem BioAssay AID1963982 (Molecular Pharmacology Branch, DTP, NCI, 2024).

Tested on: 313798-341-R-J2-PDC spheroids, viability
Test: Anticancer human tumor 313798-341-R-J2-PDC patient-derived cervical squamous cell carcinoma cell line growth inhibition [PI3K]
Settings: spheroids with HUVEC and MSC; for IC50: curve of first compound; for viability, T/C: stronger effect = lower value
In short: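 Viability of mixed-cell spheroids was determined after exposure to pairwise combinations, one partner being inavolisib, alpelisib, duvelisib or copanlisib. Highest tested concentration matched clinical Cmax where known and 10 microM where not, descending in half-log steps.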

[1] = second compound 0.00316 µM, first compound 0.0316 µM
[2] = second compound 0.00316 µM, first compound 0.1 µM
[3] = second compound 0.00316 µM, first compound 0.316 µM
[4] = second compound 0.00316 µM, first compound 1 µM
[5] = second compound 0.00316 µM, first compound 3.16 µM
[6] = second compound 0.00316 µM, first compound 10 µM
[7] = second compound 0.01 µM, first compound 0.0316 µM
[8] = second compound 0.01 µM, first compound 0.1 µM
[9] = second compound 0.01 µM, first compound 0.316 µM
[10] = second compound 0.01 µM, first compound 1 µM
[11] = second compound 0.01 µM, first compound 3.16 µM
[12] = second compound 0.01 µM, first compound 10 µM
[13] = second compound 0.0316 µM, first compound 0.0316 µM
[14] = second compound 0.0316 µM, first compound 0.1 µM
[15] = second compound 0.0316 µM, first compound 0.316 µM
[16] = second compound 0.0316 µM, first compound 1 µM
[17] = second compound 0.0316 µM, first compound 3.16 µM
[18] = second compound 0.0316 µM, first compound 10 µM
[19] = second compound 0.1 µM, first compound 0.0316 µM
[20] = second compound 0.1 µM, first compound 0.1 µM
[21] = second compound 0.1 µM, first compound 0.316 µM
[22] = second compound 0.1 µM, first compound 1 µM
[23] = second compound 0.1 µM, first compound 3.16 µM
[24] = second compound 0.1 µM, first compound 10 µM
[25] = second compound 0.316 µM, first compound 0.0316 µM
[26] = second compound 0.316 µM, first compound 0.1 µM
[27] = second compound 0.316 µM, first compound 0.316 µM
[28] = second compound 0.316 µM, first compound 1 µM
[29] = second compound 0.316 µM, first compound 3.16 µM
[30] = second compound 0.316 µM, first compound 10 µM
[31] = second compound 1 µM, first compound 0.0316 µM
[32] = second compound 1 µM, first compound 0.1 µM
[33] = second compound 1 µM, first compound 0.316 µM
[34] = second compound 1 µM, first compound 1 µM
[35] = second compound 1 µM, first compound 3.16 µM
[36] = second compound 1 µM, first compound 10 µM
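Further: spheroids exposed to compounds for seven days.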
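Wherever viability, T/C is given: 100% = DMSO vehicle control viability.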

C#Cc1c(F)ccc2cc(O)cc(-c3ncc4c(N5CC6CCC(C5)N6)nc(OCC56CCCN5CC(F)C6)nc4c3F)c12 (stereo not drawn) + COc1c(OCCCN2CCOCC2)ccc2c3n(c(=NC(=O)c4cnc(N)nc4)nc12)CCN3
IC50 (second compound 0.00316 µM): > 10000 nM
IC50 (second compound 0.01 µM): > 10000 nM
IC50 (second compound 0.0316 µM): > 10000 nM
IC50 (second compound 0.1 µM): < 31.6 nM
IC50 (second compound 0.316 µM): < 31.6 nM
IC50 (second compound 1 µM): < 31.6 nM
viability, T/C [1]: 107%
viability, T/C [2]: 103%
viability, T/C [3]: 107%
viability, T/C [4]: 110%
viability, T/C [5]: 108%
viability, T/C [6]: 100%
viability, T/C [7]: 93.6%
viability, T/C [8]: 106%
viability, T/C [9]: 105%
viability, T/C [10]: 108%
viability, T/C [11]: 98.7%
viability, T/C [12]: 102%
viability, T/C [13]: 70.2%
viability, T/C [14]: 83.3%
viability, T/C [15]: 96.8%
viability, T/C [16]: 78.7%
viability, T/C [17]: 72.7%
viability, T/C [18]: 77.2%
viability, T/C [19]: 40.1%
viability, T/C [20]: 47.7%
viability, T/C [21]: 45.1%
viability, T/C [22]: 42.1%
viability, T/C [23]: 39.5%
viability, T/C [24]: 32.6%
viability, T/C [25]: 17.8%
viability, T/C [26]: 18.2%
viability, T/C [27]: 16.7%
viability, T/C [28]: 13.4%
viability, T/C [29]: 15.3%
viability, T/C [30]: 6.87%
viability, T/C [31]: 9.9%
viability, T/C [32]: 13.1%
viability, T/C [33]: 12.1%
viability, T/C [34]: 11.2%
viability, T/C [35]: 8.79%
viability, T/C [36]: 4.83%

C=CC(=O)N1CCN(c2nc(=O)n(-c3c(C)ccnc3C(C)C)c3nc(-c4c(O)cccc4F)c(F)cc23)C(C)C1 (stereo not drawn) + COc1c(OCCCN2CCOCC2)ccc2c3n(c(=NC(=O)c4cnc(N)nc4)nc12)CCN3
IC50 (second compound 0.00316 µM): > 10000 nM
IC50 (second compound 0.01 µM): > 10000 nM
IC50 (second compound 0.0316 µM): > 10000 nM
IC50 (second compound 0.1 µM): < 31.6 nM
IC50 (second compound 0.316 µM): < 31.6 nM
IC50 (second compound 1 µM): < 31.6 nM
viability, T/C [1]: 98.3%
viability, T/C [2]: 103%
viability, T/C [3]: 106%
viability, T/C [4]: 96.1%
viability, T/C [5]: 101%
viability, T/C [6]: 106%
viability, T/C [7]: 92%
viability, T/C [8]: 99.4%
viability, T/C [9]: 106%
viability, T/C [10]: 112%
viability, T/C [11]: 112%
viability, T/C [12]: 96.5%
viability, T/C [13]: 70.6%
viability, T/C [14]: 80.3%
viability, T/C [15]: 91.4%
viability, T/C [16]: 90.4%
viability, T/C [17]: 83.6%
viability, T/C [18]: 82.9%
viability, T/C [19]: 44.8%
viability, T/C [20]: 48.9%
viability, T/C [21]: 52.1%
viability, T/C [22]: 48.7%
viability, T/C [23]: 50.1%
viability, T/C [24]: 42.9%
viability, T/C [25]: 16.8%
viability, T/C [26]: 17.9%
viability, T/C [27]: 15.4%
viability, T/C [28]: 18.2%
viability, T/C [29]: 19.1%
viability, T/C [30]: 13.5%
viability, T/C [31]: 12%
viability, T/C [32]: 12.6%
viability, T/C [33]: 12.8%
viability, T/C [34]: 13.7%
viability, T/C [35]: 14.6%
viability, T/C [36]: 10.2%

CC1(C)CCC(Nc2ncc(C(F)(F)F)c(-c3c[nH]c4c(P(C)(C)=O)c(C#N)ccc34)n2)CN1 (stereo not drawn) + COc1c(OCCCN2CCOCC2)ccc2c3n(c(=NC(=O)c4cnc(N)nc4)nc12)CCN3
IC50 (second compound 0.00316 µM): < 31.6 nM
IC50 (second compound 0.01 µM): < 31.6 nM
IC50 (second compound 0.0316 µM): < 31.6 nM
IC50 (second compound 0.1 µM): < 31.6 nM
IC50 (second compound 0.316 µM): < 31.6 nM
IC50 (second compound 1 µM): < 31.6 nM
viability, T/C [1]: 44.6%
viability, T/C [2]: 42.3%
viability, T/C [3]: 39.7%
viability, T/C [4]: 43.9%
viability, T/C [5]: 45.4%
viability, T/C [6]: 33.7%
viability, T/C [7]: 39.6%
viability, T/C [8]: 34.7%
viability, T/C [9]: 36.8%
viability, T/C [10]: 38.1%
viability, T/C [11]: 43.1%
viability, T/C [12]: 29.1%
viability, T/C [13]: 27.4%
viability, T/C [14]: 27.9%
viability, T/C [15]: 27.4%
viability, T/C [16]: 27.9%
viability, T/C [17]: 26.5%
viability, T/C [18]: 16.5%
viability, T/C [19]: 18.9%
viability, T/C [20]: 21.1%
viability, T/C [21]: 20%
viability, T/C [22]: 20.2%
viability, T/C [23]: 21.5%
viability, T/C [24]: 3.93%
viability, T/C [25]: 12.2%
viability, T/C [26]: 11.7%
viability, T/C [27]: 12.2%
viability, T/C [28]: 12%
viability, T/C [29]: 8.87%
viability, T/C [30]: 1.12%
viability, T/C [31]: 9.94%
viability, T/C [32]: 9.34%
viability, T/C [33]: 7.8%
viability, T/C [34]: 7.89%
viability, T/C [35]: 5.87%
viability, T/C [36]: 1.15%

Cn1nccc1Nc1nccc(-c2ccn(C(CO)c3ccc(Cl)c(F)c3)c(=O)c2)n1 (stereo not drawn) + COc1c(OCCCN2CCOCC2)ccc2c3n(c(=NC(=O)c4cnc(N)nc4)nc12)CCN3
IC50 (second compound 0.00316 µM): > 10000 nM
IC50 (second compound 0.01 µM): > 10000 nM
IC50 (second compound 0.0316 µM): > 10000 nM
IC50 (second compound 0.1 µM): < 31.6 nM
IC50 (second compound 0.316 µM): < 31.6 nM
IC50 (second compound 1 µM): < 31.6 nM
viability, T/C [1]: 100%
viability, T/C [2]: 97%
viability, T/C [3]: 106%
viability, T/C [4]: 111%
viability, T/C [5]: 102%
viability, T/C [6]: 90.1%
viability, T/C [7]: 104%
viability, T/C [8]: 108%
viability, T/C [9]: 97.8%
viability, T/C [10]: 106%
viability, T/C [11]: 94%
viability, T/C [12]: 89.5%
viability, T/C [13]: 75.8%
viability, T/C [14]: 83.2%
viability, T/C [15]: 69.5%
viability, T/C [16]: 77.1%
viability, T/C [17]: 66.5%
viability, T/C [18]: 55.6%
viability, T/C [19]: 38.2%
viability, T/C [20]: 43.3%
viability, T/C [21]: 41%
viability, T/C [22]: 38.4%
viability, T/C [23]: 34.7%
viability, T/C [24]: 32%
viability, T/C [25]: 16.6%
viability, T/C [26]: 15.3%
viability, T/C [27]: 12.2%
viability, T/C [28]: 9.87%
viability, T/C [29]: 9.43%
viability, T/C [30]: 7.53%
viability, T/C [31]: 10.9%
viability, T/C [32]: 9.68%
viability, T/C [33]: 7.11%
viability, T/C [34]: 5.54%
viability, T/C [35]: 4.07%
viability, T/C [36]: 2.53%
